Data on two compounds can be found in publication PMC12645083, “Microwave‐Enhanced Synthesis of 2‐Styrylquinoline‐4‐Carboxamides With Promising Anti‐Lymphoma Activity” (Archiv Der Pharmazie, 2025).

Molecules are shown by their SMILES.

For assay [1], the system named is TOLEDO. In words: Apoptosis assay, Annexin V/PI staining. The settings on record: 2 µM, 48 h. It counts as cell-based, human. Here is the method: (§1) For apoptosis evaluation, cells were plated in 12‐well plates at 0.2 × 10⁶ cells/mL in 1 mL of complete medium. After 24 h, cells were treated with the indicated compound concentrations. After 48 h, cells were harvested, centrifuged, and stained with Annexin V‐FITC and propidium iodide (PI) using the Annexin‐V Fluos kit (Roche Diagnostics), following the manufacturer's instructions. Fluorescence was analyzed using a Coulter Cytomics FC500 flow cytometer (Beckman Coulter) with detection in the FL1 and FL3 channels, respectively.

Assay [2] has as its system VL51. In words: Apoptosis assay, Annexin V/PI staining. In kind it is cell-based, human. To be noted: 2 µM, 48 h. Here is the method:
as §1

For assay [3], the system named is TOLEDO. Kind of assay: Mitochondrial ROS detection (MitoSOX). The settings on record: 24 h of treatment. In kind it is cell-based, human. Here is the method: (§2) Cells were plated in 12‐well plates at 0.2 × 10⁶ cells/mL in 1 mL of complete medium. After 24 h, cells were treated with the indicated compound concentrations. Following a 24‐h treatment, cells were stained with 0.5 µM MitoSOX (Invitrogen, US) for 20 min. After washing with PBS, fluorescence was measured using a CytoFLEX flow cytometer (Beckman Coulter) and analyzed with FlowJo software v.10.7.1.

Assay [4] relates to VL51. In words: Mitochondrial ROS detection (MitoSOX). It counts as cell-based, human. To be noted: 24 h of treatment. Here is the method: as §2
Assay [5] deals with panel of five tumor cell lines (HD-MB03, RPMI-8402, SU-DHL-8, A549, MDA-MB-231). In words: Antiproliferative activity, range over the panel of five tumor cell lines. In kind it is cell-based. The settings on record: Homo sapiens; range over the active cell lines of the five-line panel; 72 h. Here is the method:
The synthesized quinoline derivatives 4a–z and 4aa–ah were evaluated in vitro for their antiproliferative activity against a panel of five tumor cell lines (HD‐MB03, medulloblastoma; RPMI‐8402, T‐lymphoblastic leukemia; SU‐DHL‐8, B lymphocyte, large cell lymphoma; A549, non‐small cell lung cancer; MDA‐MB‐231, triple‐negative breast cancer) (Table 2). […] Replacing the 4‐Cl group with a trifluoromethyl group (4ac) reduced antiproliferative activity.
To test the newly synthesized compounds, various human cell lines were employed. HD‐MB03 cells were purchased from DSMZ (Braunschweig, Germany), while A549, MDA‐MB‐231, RPMI‐8420, SU‐DHL‐8, TOLEDO, VL51, SU‐DHL‐1, SU‐DHL‐18, and KM‐H2 were obtained from ATCC (Manassas, VA, USA). Cells were cultured in DMEM (for MDA‐MB‐231 and A549) or RPMI‐1640 (for RPMI‐8420, SU‐DHL‐8, TOLEDO, VL51, SU‐DHL‐1, SU‐DHL‐18, KM‐H2, and HD‐MB03) media (Gibco, Milan, Italy). Both media were supplemented with 115 units/mL penicillin G (Gibco, Milan, Italy), 115 µg/mL streptomycin (Invitrogen, Milan, Italy), and 10% fetal bovine serum (Invitrogen, Milan, Italy). Peripheral blood mononuclear cells (PBMCs) were isolated from healthy donors as previously described. For cytotoxicity assays, PBMCs were resuspended at 5 × 10⁵ cells/mL in complete RPMI medium with or without 2.5 µg/mL phytohemagglutinin (PHA) (Irvine Scientific) to stimulate T‐cell activation and proliferation. All cell lines were maintained at 37°C in a humidified atmosphere containing 5% CO₂. All compounds were dissolved in DMSO at a 10 mM stock concentration. For dose–response assays, cells were seeded in 96‐well plates at densities optimized for each cell line: HD‐MB03 at 10,000 cells/well, A549 at 4000 cells/well, and MDA‐MB‐231 at 7000 cells/well. All other cell lines were seeded at 20,000 cells/well in a final volume of 100 µL per well. After 24 h, cells were treated with a 6‐point serial dilution of compounds starting from 10 µM, in triplicate for statistical analysis. Seventy‐2 h posttreatment, 10 µL of resazurin solution (100 µg/mL) was added to each well, and cells were incubated for an additional 3–6 h. Fluorescence was measured using a Spark 10 M microplate reader (Tecan Group Ltd., Männedorf, Switzerland) with excitation at 535 nm and emission at 600 nm. The IC₅₀ was defined as the concentration of compound required to inhibit cell proliferation by 50% compared to cells treated with the highest DMSO concentration.

Usually IC50 stands for the point on the concentration scale where inhibition reaches its midpoint.

For the compound `O=C(Nc1ccc([N+](=O)[O-])cc1)c1cc(/C=C/c2ccccc2)nc2ccccc12` [4i, (E)-N-(4-nitrophenyl)-2-styrylquinoline-4-carboxamide], the “Mode of cell death (Annexin V/PI)” value is “induced late apoptosis and necrosis” in the assay with TOLEDO [1]; “induced late apoptosis and necrosis” with VL51 [2]. Further, the “Mitochondrial ROS (MitoSOX-positive cells)” value in the assay on TOLEDO [3] and in the assay on VL51 [4] was “marked dose‐dependent increase of mitochondrial ROS” throughout.

`O=C(Nc1ccc(Cl)cc1)c1cc(/C=C/c2ccccc2[N+](=O)[O-])nc2ccccc12` [4ah, (E)-N-(4-chlorophenyl)-2-(2-nitrostyryl)quinoline-4-carboxamide]: the 50% inhibitory concentration (IC50) in assay [5] is 1.33 to 6.92 µM.
